pIC50: −log10 of the molar value.
Experiments:
Format in all cases: biochemical
Jarid1A = Jarid1A (Homo sapiens (Human), UniProt P29375); experiment: Jarid1A in vitro enzyme inhibition assay (TR-FRET)
From the text: The enzymatic assay of Jarid1A activity is based upon Time Resolved-Fluorescence Resonance Energy Transfer (TR-FRET) detection.

JMJD2C = JMJD2C (Homo sapiens (Human), UniProt Q9H3R0); experiment: JMJD2C in vitro enzyme inhibition assay (TR-FRET)
Protocol: Baculovirus expressed JMJD2C (GenBank Accession #BC143571, AA 2-372) was purchased from BPS Bioscience (Cat#50105).
The ability of test compounds to inhibit the activity of JMJD2C was determined in 384-well plate format under the following reaction conditions: 0.3 nM JMJD2C, 300 nM H3K9me3-biotin labeled peptide (Anaspec cat #64360), 2 μM alpha-ketoglutaric acid in assay buffer of 50 mM HEPES, pH7.3, 0.005% Brij35, 0.5 mM TCEP, 0.2 mg/ml BSA, 50 μM sodium L-ascorbate, and 2 μM ammonium iron(II) sulfate. Reaction product was determined quantitatively by TR-FRET after the addition of detection reagent Phycolink Streptavidin-allophycocyanin (Prozyme) and Europium-anti-di-methylated histone H3 lysine 9 (H3K9me2) antibody (PerkinElmer) in the presence of 5 mM EDTA in LANCE detection buffer (PerkinElmer) at a final concentration of 50 nM and 1 nM, respectively.
The assay reaction was initiated by the following: 2 μl of the mixture of 900 nM H3K9me3-biotin labeled peptide and 6 μM alpha-ketoglutaric acid with 2 μl of 11-point serial diluted inhibitor in 3% DMSO were added to each well of the plate, followed by the addition of 2 μl of 0.9 nM JMJD2C to initiate the reaction. The reaction mixture was incubated at room temperature for 30 minutes, and terminated by the addition of 6 μl of 5 mM EDTA in LANCE detection buffer containing 100 nM Phycolink Streptavidin-allophycocyanin and 2 nM Europium-anti-H3K9me2 antibody. Plates were read by EnVisionMultilabel Reader in TR-FRET mode (excitation at 320 nm, emission at 615 nm and 665 nm) after 1 hour incubation at room temperature. A ratio was calculated (665/615) for each well and fitted to determine inhibition constant (IC50).

Jarid1B = Jarid1B (Homo sapiens (Human), UniProt Q9UGL1); experiment: Jarid1B in vitro enzyme inhibition assay (TR-FRET)
Jarid1B, sequence (Q9UGL1 2-751): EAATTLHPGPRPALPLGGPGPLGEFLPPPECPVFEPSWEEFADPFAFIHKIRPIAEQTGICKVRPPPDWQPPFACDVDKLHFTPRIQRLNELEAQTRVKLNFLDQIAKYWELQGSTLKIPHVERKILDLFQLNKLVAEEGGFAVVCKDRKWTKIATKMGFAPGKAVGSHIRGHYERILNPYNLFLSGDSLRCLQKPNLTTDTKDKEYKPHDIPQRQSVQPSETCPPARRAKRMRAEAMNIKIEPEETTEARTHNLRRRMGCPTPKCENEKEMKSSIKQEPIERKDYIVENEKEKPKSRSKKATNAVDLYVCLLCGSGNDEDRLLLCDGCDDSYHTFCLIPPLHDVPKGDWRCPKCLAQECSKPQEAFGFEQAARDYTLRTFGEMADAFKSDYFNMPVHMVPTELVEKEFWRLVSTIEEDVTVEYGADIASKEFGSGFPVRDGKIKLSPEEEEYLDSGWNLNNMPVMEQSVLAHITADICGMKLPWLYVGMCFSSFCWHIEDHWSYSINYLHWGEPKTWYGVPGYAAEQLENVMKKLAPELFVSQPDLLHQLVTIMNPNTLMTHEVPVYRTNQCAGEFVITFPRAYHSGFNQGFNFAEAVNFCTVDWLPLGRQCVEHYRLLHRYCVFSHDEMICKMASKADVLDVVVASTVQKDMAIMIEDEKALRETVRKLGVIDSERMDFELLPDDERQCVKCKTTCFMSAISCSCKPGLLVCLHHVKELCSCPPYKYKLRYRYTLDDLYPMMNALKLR

JMJD2C, sequence (Q9H3R0 2-372): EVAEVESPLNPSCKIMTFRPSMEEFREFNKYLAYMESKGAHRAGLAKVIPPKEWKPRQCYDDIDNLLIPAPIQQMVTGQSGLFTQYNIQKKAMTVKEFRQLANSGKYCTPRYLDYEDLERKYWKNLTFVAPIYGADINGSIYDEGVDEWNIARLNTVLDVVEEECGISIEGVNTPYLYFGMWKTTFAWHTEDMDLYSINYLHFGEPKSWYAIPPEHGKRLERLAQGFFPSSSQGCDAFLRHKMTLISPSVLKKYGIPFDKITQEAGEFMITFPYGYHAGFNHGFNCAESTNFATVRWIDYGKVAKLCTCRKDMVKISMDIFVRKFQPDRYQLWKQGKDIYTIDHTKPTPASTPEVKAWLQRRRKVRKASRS
Jarid1A, sequence (P29375 1-1090): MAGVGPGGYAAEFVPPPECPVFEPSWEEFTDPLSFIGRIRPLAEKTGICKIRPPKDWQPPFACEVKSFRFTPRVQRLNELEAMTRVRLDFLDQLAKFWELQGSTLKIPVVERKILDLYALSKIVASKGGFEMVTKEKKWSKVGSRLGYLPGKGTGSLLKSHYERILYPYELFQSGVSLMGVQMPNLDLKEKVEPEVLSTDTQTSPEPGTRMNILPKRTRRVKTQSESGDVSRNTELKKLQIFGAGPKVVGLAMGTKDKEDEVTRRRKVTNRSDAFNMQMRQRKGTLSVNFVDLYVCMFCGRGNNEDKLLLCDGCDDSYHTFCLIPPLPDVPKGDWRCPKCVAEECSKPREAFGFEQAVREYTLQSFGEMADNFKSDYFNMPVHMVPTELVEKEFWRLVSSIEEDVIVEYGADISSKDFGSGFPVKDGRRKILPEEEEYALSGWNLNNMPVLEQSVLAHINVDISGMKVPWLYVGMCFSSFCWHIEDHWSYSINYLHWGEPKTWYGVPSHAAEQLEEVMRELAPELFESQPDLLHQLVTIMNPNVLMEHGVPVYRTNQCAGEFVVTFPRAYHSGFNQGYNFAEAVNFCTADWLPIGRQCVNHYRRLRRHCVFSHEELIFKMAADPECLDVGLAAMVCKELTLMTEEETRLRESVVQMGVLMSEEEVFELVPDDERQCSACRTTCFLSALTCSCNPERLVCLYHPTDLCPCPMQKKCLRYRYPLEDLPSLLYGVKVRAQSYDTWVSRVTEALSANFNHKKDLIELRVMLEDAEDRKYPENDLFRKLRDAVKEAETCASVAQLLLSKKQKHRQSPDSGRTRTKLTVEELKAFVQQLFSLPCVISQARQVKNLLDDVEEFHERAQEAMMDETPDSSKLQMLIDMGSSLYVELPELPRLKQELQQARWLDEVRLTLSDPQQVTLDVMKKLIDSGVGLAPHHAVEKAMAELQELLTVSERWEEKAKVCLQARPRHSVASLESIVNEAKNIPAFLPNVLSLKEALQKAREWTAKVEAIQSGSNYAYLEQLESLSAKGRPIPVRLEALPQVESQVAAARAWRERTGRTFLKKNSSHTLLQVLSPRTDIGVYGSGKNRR

Compound | pIC50 (Jarid1A) | pIC50 (JMJD2C) | pIC50 (Jarid1B)
O=C(O)c1ccnc(-n2nccc2OCC2CC(F)(F)C2)c1 [Example 83, 2-[5-[(3,3-difluorocyclobutyl)methoxy]pyrazol-1-yl]pyridine-4-carboxylic acid] | > 7.00 | > 7.00 | > 7.00
O=C(O)c1ccnc(-n2nccc2OCc2ccc(Cl)cc2Cl)c1 [Example 88, 2-[5-[(2,4-dichlorophenyl)methoxy]pyrazol-1-yl]pyridine-4-carboxylic acid] | > 7.00 | 6.00 to 7.00 | > 7.00
COc1cc(Cl)ccc1COc1ccnn1-c1cc(C(=O)O)ccn1 [Example 90, 2-[5-[(4-chloro-2-methoxyphenyl)methoxy]pyrazol-1-yl]pyridine-4-carboxylic acid] | > 7.00 | > 7.00 | > 7.00
O=C(O)c1ccnc(-n2nccc2OCc2ccc(Cl)c(C(F)(F)F)c2)c1 [Example 91, 2-[5-[[4-chloro-3-(trifluoromethyl)phenyl]methoxy]pyrazol-1-yl]pyridine-4-carboxylic acid] | > 7.00 | 6.00 to 7.00 | > 7.00
Cc1ccc(COc2ccnn2-c2cc(C(=O)O)ccn2)c(F)c1F [Example 94, 2-[5-[(2,3-difluoro-4-methylphenyl)methoxy]pyrazol-1-yl]pyridine-4-carboxylic acid] | > 7.00 | > 7.00 | > 7.00
N#Cc1cccc(COc2ccnn2-c2cc(C(=O)O)ccn2)c1 [Example 97, 2-[5-[(3-cyanophenyl)methoxy]pyrazol-1-yl]pyridine-4-carboxylic acid] | > 7.00 | > 7.00 | > 7.00
O=C(O)c1ccnc(-n2ncc(CCO)c2OCc2ccc(F)cc2)c1 [Example 109, 2-[5-[(4-fluorophenyl)methoxy]-4-(2-hydroxyethyl)pyrazol-1-yl]pyridine-4-carboxylic acid] | > 7.00 | 5.00 to 6.00 | > 7.00

Continued, values first:

pIC50 (Jarid1A) | pIC50 (JMJD2C) | pIC50 (Jarid1B) | Compound
> 7.00 | 6.00 to 7.00 | > 7.00 | CC(Oc1ccnn1-c1cc(C(=O)O)ccn1)c1ccc(F)cc1 (stereo not drawn) [Example 82, 2-[5-[1-(4-fluorophenyl)ethoxy]pyrazol-1-yl]pyridine-4-carboxylic acid]
> 7.00 | 6.00 to 7.00 | > 7.00 | Cc1cnn(-c2cc(C(=O)O)ccn2)c1OCc1ccc(F)cc1 [Example 84, 2-[5-[(4-fluorophenyl)methoxy]-4-methylpyrazol-1-yl]pyridine-4-carboxylic acid]
> 7.00 | 6.00 to 7.00 | > 7.00 | CCc1cnn(-c2cc(C(=O)O)ccn2)c1OCc1ccc(F)cc1 [Example 85, 2-[4-ethyl-5-[(4-fluorophenyl)methoxy]pyrazol-1-yl]pyridine-4-carboxylic acid]
> 7.00 | 6.00 to 7.00 | > 7.00 | O=C(O)c1ccnc(-n2nccc2OCc2ccc(F)cc2F)c1 [Example 86, 2-[5-[(2,4-difluorophenyl)methoxy]pyrazol-1-yl]pyridine-4-carboxylic acid]
> 7.00 | > 7.00 | > 7.00 | Cc1ccc(COc2ccnn2-c2cc(C(=O)O)ccn2)cc1F [Example 93, 2-[5-[(3-fluoro-4-methylphenyl)methoxy]pyrazol-1-yl]pyridine-4-carboxylic acid]
> 7.00 | 6.00 to 7.00 | > 7.00 | CCc1ccc(COc2ccnn2-c2cc(C(=O)O)ccn2)cc1Cl [Example 95, 2-[5-[(3-chloro-4-ethylphenyl)methoxy]pyrazol-1-yl]pyridine-4-carboxylic acid]
> 7.00 | 6.00 to 7.00 | > 7.00 | CCc1ccc(COc2ccnn2-c2cc(C(=O)O)ccn2)cc1F [Example 96, 2-[5-[(4-ethyl-3-fluorophenyl)methoxy]pyrazol-1-yl]pyridine-4-carboxylic acid]

— patent US9604961B2, “Histone demethylase inhibitors” (Celgene Quanticel Research, Inc., priority 2012, dated 2017)
